One test concerns rat MES model. As to conditions: cited from earlier work.
Test [1] concerns formalin-induced licking and flinching. In words: mouse formalin test, 9 day treatment (tolerance). In kind it is in vivo, mice. As for the experimental part:
The mice paw formalin test was performed as described by Wheeler-Aceto et al. (Psychopharmacology 104:35-44, 1991). Briefly, the day before the formalin injection, mice were placed individually into clear plastic cylinders for 30 minutes of adaptation. The day of testing 20 μl of 1% formalin was injected into the plantar surface of the left hind paw and the animals were again placed into the plastic cylinder for the behavioural observation. The amount of time, in seconds, the animals spent licking and flinching (L/F) the injected paw for the first 5 min (early phase), and then from 10 to 40 min(late phase) after formalin injection, was used as measurement of intensity of pain. CHF 3381 10-100 mg/kg i.p. and 25-200 mg/kg p.o. or the corresponding vehicles, were administered 15 and 30 min before formalin injection, respectively.
Moreover, the formalin test was used to examine whether tolerance develops with respect to the antihyperalgesic effect of CHF 3381 after chronic treatment in comparison with the standard opioid morphine. Briefly, mice were divided randomly into five groups (12 mice per group) and administered once daily for 8 days as follows: three groups with saline i.p., one group with CHF 3381 60 mg/kg i.p. and one group with morphine 20 mg/kg i.p. On ninth day these groups were treated in following way: one saline pre-treated group was treated with saline i.p. (g1); two saline pre-treated group were treated with CHF 3381 30 mg/kg i.p. (g2) and with morphine 6 mg/kg i.p. (g3), respectively; the group pre-treated with CHF 3381 60 mg/kg was treated with CHF 3381 30 mg/kg i.p. (g4) and the group pre-treated with morphine 20 mg/kg was treated with morphine 6 mg/kg i.p.(g5), a dose that was previously shown to be active in the formalin test. CHF 3381 and morphine were administered 15 and 30 min before formalin injection, respectively.

The test system of test [2] is mechanical hyperalgesia in streptozotocin (STZ)-induced diabetic neuropathy. In words: streptozotocin-induced diabetic neuropathy, paw pressure test. As to conditions: 100 mg/kg p.o. In kind it is in vivo, rat. The protocol: The objective of this study was to assess the antinociceptive effects of CHF 3381 (25, 50 and 100 mg/kg p.o.) and gabapentin (100 mg/kg p.o) on mechanical hyperalgesia in streptozotocin (STZ)-induced diabetic neuropathy in rats. Diabetes was induced by intraperitoneal injection of STZ (75 mg/kg), and 23 days later its presence was confirmed by measuring of tail vein blood glucose levels and only rats with […] were included in the study.
After 25 days, distilled water, CHF3381 and gabapentin were administered 60 minutes before pain measurement. The nociceptive threshold was evaluated in all groups using a mechanical nociceptive stimulation (paw pressure test).
An increasing pressure (grams of contact pressure) was applied onto the both hind paws of the animal until a nociceptive reaction (vocalisation or paw withdrawal) was determined. The results, expressed as the percentage variation of the nociceptive threshold calculated respect the mean value of the vehicle-treated diabetic group, are reported in Table 2.

The mark [3] stands for this setting: G3: 6 mg/kg i.p. on ninth day after 8 days saline.
Where [4] appears, read: G5: 6 mg/kg i.p. on ninth day after 8 days morphine 20 mg/kg i.p.

For the compound `CC(NC1Cc2ccccc2C1)C(N)=O.Cl` (stereo not shown) [2-(2-indanylamino)-propanamide hydrochloride], in the test with rat MES model, the anti-convulsivant activity result is “anti-convulsivant activity”.
Consider `CN1CC[C@]23c4c5ccc(O)c4O[C@H]2[C@@H](O)C=C[C@H]3[C@H]1C5` [Morphine, morphine, reference compound], for which the figures for the Early phase in test [1] (setting [3]) and in test [1] (setting [4]) were 52 ± 15 s and 95 ± 9 s, respectively. Also, the Late phase in test [1] (setting [3]) was determined as 91 ± 21 s; in test [1] (setting [4]) it was 175 ± 22 s. In addition, the “antihyperalgesic action after chronic treatment (tolerance)” value in test [1] (once daily for 8 days, test on ninth day) is given as “failed to show such actions”.
Regarding `NCC1(CC(=O)O)CCCCC1` [Gabapentin, gabapentin, reference compound], the Nociceptive threshold in test [2] (60 minutes before measurement) was determined as 229.2 ± 32.3 g. Moreover, the “% variation of the nociceptive threshold” value in test [2] (vs vehicle-treated diabetic group) is 68%.
As to `CN(CC(N)=O)C1Cc2ccccc2C1.Cl` [N-2(indanyl)-N-methyl glicinamide hydrochloride], the anti-convulsivant activity entry in the test on rat MES model was “anti-convulsivant activity”.
With `Cl.NC(=O)C(CO)NC1Cc2ccccc2C1` (stereo not shown) [3-hydroxy-2-(2-indanylamino)-propanamide hydrochloride], the anti-convulsivant activity result with rat MES model is reported as “anti-convulsivant activity”.

Source of the values: patent US20050222266A1, “2-indanylamino derivatives for the therapy of chronic pain” (priority 2002, published 2005).
